Consider six molecules from patent publication US20070116836A1, “High-Potency Sweetener Composition for Treatment and/or Prevention of Osteoporosis and Compositions Sweetened Therewith” (THE COCA-COLA COMPANY, priority 2005, published 2007).

Data set [1] in a line: Sensory evaluation of sweetness linger by expert panel, Example Set H (phosphoric acid base). Format: in vivo. On the set-up: key: 0=no sweetness linger; 1=very slight sweetness linger; 2=slight sweetness linger; 3=moderate sweetness linger; 4=moderately high sweetness linger; 5=high sweetness linger. To be noted: scale 0-5; 500 ppm REBA (H41: 360 ppm) in carbon-treated water, phosphoric acid (75%) to pH 2.4-2.5, additive per example; sugar control 10 g in 100 ml.

The nature of data set [2]: Sensory evaluation of sweetness linger by expert panel, Example Set G (citric acid/potassium citrate base). Format: in vivo. Further details: key: 0=no sweetness linger; 1=very slight sweetness linger; 2=slight sweetness linger; 3=moderate sweetness linger; 4=moderately high sweetness linger; 5=high sweetness linger. To be noted: scale 0-5; 400 ppm REBA in citric acid/potassium citrate composition equivalent to diet lemon-lime beverage, additive per example; sugar control 8 g in 100 ml citrate buffer. As to the method: Sensory evaluation of the samples prepared in Example Set G was carried out under the following protocol, similar to that described hereinabove. In this test protocol, none of the samples were swallowed. All samples were expectorated and the mouth was rinsed with water after the tasting. Immediately upon sensing maximal sweetness, the sample was expectorated, the mouth was rinsed with water and the rate of sweetness decay (“Sweetness Linger”) was measured, where attention was focused on the sweetness 3-4 min after the water rinse. After sample tasting was complete, a salty oyster cracker was chewed followed by a water rinse, and at least 5 minutes followed before tasting the next sample. […]
The effects of formulation change on the sweetness linger of 400 ppm REBA (equivalent to 8 g sucrose) in a citric acid/potassium citrate composition equivalent to that in a diet lemon-lime beverage were evaluated. The sweetness linger rating of this solution was determined to be 5.
8 g of sugar was dissolved in 100 ml of citrate buffer. The sweetness linger rating of this control sample was determined to be 0.

The nature of data set [3]: Rate of dissolution in H2O at 25° C. of rebaudioside A polymorph and amorphous forms. Particulars: grade in words. Format: physicochemical.

For `OC[C@H]1O[C@@](CO)(O[C@H]2O[C@H](CO)[C@@H](O)[C@H](O)[C@H]2O)[C@@H](O)[C@@H]1O` [sugar, sucrose], the Sweetness linger in data set [1] and in data set [2] was 0 each time.
For rebaudioside A, the Sweetness linger in data set [1] and in data set [2] was 5 throughout.
For the molecule rebaudioside A [Form 1], the “Rate of dissolution in H2O at 25° C.” value in data set [3] is “Very low”.
For the molecule rebaudioside A [Form 2], the “Rate of dissolution in H2O at 25° C.” value in data set [3] is on record as “Intermediate”.
The same measure, in the same setting: the same measure for rebaudioside A [Form 3]: “High”.
Consider rebaudioside A [Form 4], for which, in data set [3], the “Rate of dissolution in H2O at 25° C.” value is listed as “High”.
